What was measured:
[1] = Urinary Diindolylmethane levels by GC-MS after a single oral dose; format: in vivo, human; settings: for Urinary DIM: 75 mg oral dose (300 mg of 25% formulation), single individual
Protocol: The invention also provides a method for determining the urine level of DIM in a subject following oral administration of Diindolylmethane. In this method 300 mg or more of formulated DIM (75 mg or more of actual DIM) are taken with 8 ounces of water. Urine samples are obtained every 90 minutes for a period of 360 minutes. GC-MS operating conditions included were based on a published GC-MS analysis technique for DIM in urine (Sepkovic D W, Bradlow H L, Bell M, “Quantitative Determination of 3,3′-Diindolylmethane in the Urine of Individuals Receiving Indole-3-Carbinol” J. Nutrition (2002 in press). The following technique for analyzing DIM in urine samples was used: • 1. A 1 cc aliquot of urine for assay of diindolylmethane is mixed with 1 cc of sodium acetate buffer (pH 4.8) and 20 ul Beta-Glucuronidase from Helix Pomatia (110,200 units/ml: Sigma, St. Louis, Mo.). • 2. The solution is incubated at 40° C. for 24 hours. • 3. An internal standard of 4,4′dichlorodiindolylmethane is then added. • 4. The sample is then extracted in twice equal volume of chloroform and the sample vortexed and reduced to dryness under vacuum. • 5. The dried residue is dissolved in 20 uL of anhydrous pyridine and derivatized with 80 ul of N2O-bis-(timethyl-silyl)trifluoroacetamide (BFSTA) (Pierce Biochemical Co, Rockford, Ill.). The sample is heated to 100° C. for one hour. • 6. The derivatized sample is then injected into a Gas Chromatography Mass Spectrometer (GC-MS) in single ion monitoring mode recording results at a derivatized mass of 390. The following ions are monitored: m/z 390 (primary), 391,392 (confirmatory). Area for peak 390 is measured. • 7. Peaks are compared to a standard curve for pure diindoylylmethane in known concentrations as a standard. • 8. Creatinine in each 90 minute timed urine sample was measured by a standard Kinetic Alkaline Picrate (KAP) colormetric assay with results in mg of creatinine per cc of urine. • 9. Results obtained for DIM from the 1 cc aliquot of each timed urine sample are reported as nanograms of DIM per mg of Creatinine. This permits comparisons of urine samples of different water content in different timed samples eliminating the effects of changing hydration status of the human subject.
A related gas chromatography-mass spectrometry (GC-MS) method for the quantitation of Diindolylmethane in urine was developed. This technique is simpler, requiring less sample preparation but similar use of GC-MS analysis and provides results expressed as nanograms of Diindolylmethane per mg of Creatinine (ng DIM per mg Cre). Since production rates of Creatinine (Cre) are constant in an individual this technique allows comparison of urine samples from different times having differing water content. Sepkovic, D. W., Bradlow, H. L. Bell, M., Quantitative Determination of 3,3′-Diindolylmethane in the Urine of Individuals Receiving Indole-3-Carbinol, J. Nutrition (in press 2002).
A single individual was studied after taking 75 mg Diindolylmethane (300 mg of a 25% absorption-enhance formulation of Diindolylmethane) as a single dose after waiting 4 days since prior use of Diindolylmethane. Urine samples were collected every 90 minutes for a total of 360 minutes, frozen, and subsequently analyzed as described.

[2] = tested on: HPV-related cervical dysplasia; assay: Oral Diindolylmethane for HPV-related cervical dysplasia (case histories and open pilot study); settings: four women, 112 mg/day actual Diindolylmethane
From the text: Women with moderate to severe dyplasia on cervical biopsies volunteered for an open trial of oral Diindolylmethane supplementation.
Four women, meeting the criteria of moderate to severe HPV-related cervical dysplasia were included in a pilot study.

[3] = human, in vivo
Protocol: The subject is preferably fasting and plasma is preferred over serum. In this method 120 mg or more of formulated DIM (30 mg or more of actual DIM) are taken orally by a subject fasting for at least 4 hours along with 8 ounces of water. Blood samples are obtained on a timed basis between 120 and 180 minutes after ingesting the DIM. Samples obtained during this timeframe are analyzed by a Gas Chromatography Mass Spectrometry (GC-MS) technique. Circulating amounts of DIM during this timeframe are maximal levels following a single dose. […] The following steps describe the method for determining amounts of absorbed DIM in blood. • 1. […] The following ions are monitored: m/z 390 (primary), 391,392 (confirmatory). Area for peak 390 is measured. • 9. […]
For blood level studies adult subjects were studied in a fasting state. […] Sample analysis using a technique for GC-MS measurement of Diindolylmethane, involving acetonitrile extraction, silyation, and GC-MS quantitation was performed as adapted from the literature (Stresser, D. M., Bjeldanes, L. F., Bailey, G. S., et al., “The anticarcinogen 3,3′-Diindolylmethane is an inhibitor of cytochrome P-450”, J. Biochem. Toxicol., 10(4):191-201 (1995)) and described in section 4.2 above. […]

[4] = tested on: cutaneous warts (verrucae vulgaris); assay: Oral Diindolylmethane with Pregnenolone for cutaneous warts (case three); format: in vivo, human; settings: patient three; dose increased to maximum of 150 mg/day over 6 weeks
Protocol: Pregnenolone at 50 mg/day in a capsule form was added for immune enhancement.

[5] = tested on: verrucae involving the plantar skin; assay: Oral Diindolylmethane for childhood warts (case two); format: in vivo, human; settings: child two; 75 mg/day (3 mg/kg/day)
From the text: The usefulness of oral forms of Diindolylmethane in treating verrucous disease of childhood is illustrated by the case of C. B. The subject is a child with classic verrucae involving the plantar skin of one foot. The process began as a single wart, which was frozen with liquid nitrogen by a pediatrician. […] Within 2 months, however, a new wart recurred at the sight of the original scar. Upon recurrence the primary lesion measured approximately 0.75 cm in diameter but was now circled by a number of smaller satellite lesions surrounding the recurrent primary wart.
Treatment was initiated with 75 mg/day of Diindolylmethane in an absorbable formulation (300 mg total formula weight). With the patient weighing 25 kg, this provided 3 mg/kg/day of Diindolylmethane and 12 mg/kg/day of the formulation. […] There was no pain or scarring associated with the gradual resolution.

[6] = tested on: Recurrent Laryngeal Papillomatosis (RRP); assay: Oral therapy of Recurrent Laryngeal Papillomatosis in a child (case one); format: in vivo, human; settings: child A. L.; oral I3C 5-7 mg per kg, 6 months; no lengthening of intervals between surgical procedures
Protocol: The following describes oral Diindolylmethane therapy for the Recurrent Laryngeal Papillomatosis (RRP), a rare condition in which wart like lesions develop in and around the larynx and vocal cords in association with HPV. patient one is a child with RRP. They were diagnosed with RRP. Before Diindolylmethane therapy they had undergone 21 laryngoscopic surgical procedures for recurrent laryngeal papillomas compromising their airway. […] Tracheostomy was performed in 1998 to provide a more secure airway. Diindolylmethane in an absorbable formulation according to U.S. Pat. No. […] Surgical frequency increased immediately to two months.

laryngeal papillomatosis = settings: cited from earlier work
[7] = tested on: cervical intraepithelial neoplasia (CIN); settings: after 3 months on either 200 mg/day or 400 mg/day of I3C; 8 of 17; cited from earlier work
[8] = dietary supplementation with I3C, laryngeal papillomatosis

| Compound | Urinary DIM ([1]; 90 minutes) [ng/mg Cre] | Urinary DIM ([1]; 180 minutes) [ng/mg Cre] | Urinary DIM ([1]; 270 minutes) [ng/mg Cre] | Urinary DIM ([1]; 360 minutes) [ng/mg Cre] | Plateau of urinary Diindolylmethane ([1]; 75 mg oral dose, around 180 minutes following oral dosing) [ng/mg Creatinine] | Side effects or adverse events [2] | Augmentation in Diindolylmethane blood levels from the low to high dose [3] | Side effects [4] | Side effects associated with the oral treatment [5] | Clinical response of laryngeal papillomas [6] | Doses with neurologic and gastrointestinal toxicity (laryngeal papillomatosis; clinical use of I3C) | Disappearance of existing lesions (laryngeal papillomatosis; [8]) | Patients with cessation of papilloma growth (laryngeal papillomatosis; [8]) [%] | Maximal tolerated dose (laryngeal papillomatosis; gastrointestinal and central nervous system side effects on increasing the dose) [mg/kg] | Treated patients with normalized cervical biopsy [7] [%] |
| --- | --- | --- | --- | --- | --- | --- | --- | --- | --- | --- | --- | --- | --- | --- | --- |
| c1ccc2c(Cc3c[nH]c4ccccc34)c[nH]c2c1 [Diindolylmethane] | 2.6 | 3.82 | 3.30 | 2.50 | 3.5 | no significant side effects or adverse events | more than 3 times | without side effects | No side effects |  |  |  |  |  |  |
| OCc1c[nH]c2ccccc12 [I3C, Indole-3-carbinol] |  |  |  |  |  |  |  |  |  | failed to produce clinical improvement | more than 400 mg per day | did not result in the disappearance of existing lesions in any patient | 33 | 5 to 7 | 50 |
